This is an account of results in ChEMBL document CHEMBL1152150, “Interaction of ladder-shaped polyethers with transmembrane alpha-helix of glycophorin A as evidenced by saturation transfer difference NMR and surface plasmon resonance” (Bioorg Med Chem Lett, 2008).

pKd: −log10 of the molar value. Activity calls are given as the source filed them. The calls are words filed in the database; no cut-off is given here.

The nature of assay [1]: Binding affinity to transmembrane alpha-helix of glycophorin A 2G/2I mutant by surface plasmon resonance method. On the technique in general: Surface plasmon resonance follows binding to a sensor surface in real time, without labels.
The target of assay [2] is T1, Glycophorin-A (Homo sapiens, UniProt P02724). The assay is described as follows: Binding affinity to transmembrane alpha-helix of glycophorin A by surface plasmon resonance method.
Assay [3] addresses T1, Glycophorin-A. Description: Binding affinity to transmembrane alpha-helix of glycophorin A by saturation transfer difference NMR.

T1 sequence (P02724 whole entry): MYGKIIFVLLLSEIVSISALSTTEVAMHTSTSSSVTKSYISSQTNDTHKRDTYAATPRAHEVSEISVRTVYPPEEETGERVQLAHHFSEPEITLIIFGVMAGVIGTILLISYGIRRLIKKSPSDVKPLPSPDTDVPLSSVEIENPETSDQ

For the compound `OC[C@H]1O[C@@H](COCc2ccccc2)[C@H](OCc2ccccc2)C[C@@H]1O`, the negative logarithm of the Kd (pKd) in assay [1] is 3.07; on Glycophorin-A [2], 2.62.
For the compound `C[C@@]12CC[C@@H]3O[C@@H]4C[C@@H]5O[C@@H]6C[C@H](O)[C@@H](CO)O[C@H]6CC[C@@]5(C)O[C@H]4C[C@H]3O[C@H]1C[C@H]1O[C@@H](CCOCc3ccccc3)[C@H](OCc3ccccc3)C[C@@H]1O2`, the pKd in assay [1] was 5.11; on Glycophorin-A [2], 4.32.
As to `C=CCC(=C)/C=C/[C@@](C)(O)[C@H]1O[C@@H]2C[C@@H]3O[C@@H]4C[C@@H]5O[C@@H]6C[C@@H]7O[C@@H]8C[C@@H]9O[C@@H]%10C[C@@H]%11O[C@](C)(CCOS(=O)(=O)O)[C@@H](OS(=O)(=O)O)C[C@H]%11O[C@H]%10C[C@H]9O[C@H]8CC[C@@]7(C)O[C@@]6(C)CC[C@H](C)[C@H]5O[C@H]4C[C@@]3(C)O[C@H]2CC1=C` [YESSOTOXIN], the negative logarithm of the Kd (pKd) was 4.07 in assay [1] and 3.92 on Glycophorin-A [2]. Besides, the result on Glycophorin-A [3] was Active.
For the compound `C=CCC(=C)/C=C/[C@@](C)(O)[C@H]1O[C@@H]2C[C@@H]3O[C@@H]4C[C@@H]5O[C@@H]6C[C@@H]7O[C@@H]8C[C@@H]9O[C@@H]%10C[C@@H]%11O[C@](C)(CCO)[C@@H](O)C[C@H]%11O[C@H]%10C[C@H]9O[C@H]8CC[C@@]7(C)O[C@@]6(C)CC[C@H](C)[C@H]5O[C@H]4C[C@@]3(C)O[C@H]2CC1=C` [DESULFATED YESSOTOXIN], the negative logarithm of the Kd (pKd) in assay [1] was 4.00; at Glycophorin-A [2], 3.57.
Consider `C[C@@]12CC[C@@H]3O[C@H](CO)[C@@H](O)C[C@H]3O[C@H]1C[C@H]1O[C@@H](COCc3ccccc3)[C@H](OCc3ccccc3)C[C@@H]1O2`, for which the negative-log Kd (pKd) in assay [1] is 3.82; at Glycophorin-A [2] it was 3.62.

A word on the pKd: it is −log10 of the Kd, conventionally taken in molar units. Low readings indicate a high Kd, high ones a low Kd.
